In patent US20210238139A1, “MODULATORS OF TRYPTOPHAN CATABOLISM” (E-Therapeutics PLC, priority 2018, published 2021) one finds IC50 data, which are given here for 32 compounds.

Read-outs that look alike come from different tables or passages of the source.

This assay has as its system SK-OV-3 cells. Description: Effect of compounds on tryptophan catabolism in SK-OV-3 cell line (inhibition of kynurenine production, LC-MS/MS). The settings on record: SK-OV-3 cell line, 24 h incubation, kynurenine in supernatant by LC-MS/MS, read-out: IC50 Ranges (ic50 values for inhibition of Kynurenine production). The class given is cell-based. In outline: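 Cells seeded overnight in McCoy's 5A/10% FBS, then switched to DMEM F-12 with 6 mg/mL L-tryptophan; compounds added at 8 3-fold dilutions from 30 μM, in duplicate, 24 h at 37 °C. Supernatant kynurenine measured by LC-MS/MS; ATP-based viability run in parallel; IC50 from % inhibition of Kyn production.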

For orientation: IC50 means the concentration that inhibits the measured activity by half. `Cc1ccc(CN(C(=O)Nc2ccc(Cl)cc2)c2cnnn2C)o1` [Compound 267, 3-(4-chlorophenyl)-1-[(5-methyl-2-furyl)methyl]-1-(3-methyltriazol-4-yl)urea]: the IC50 (Homo sapiens, SK-OV-3, 24 h) fell in the range of 100 to 500 nM.

Turning to `COc1ncc(CN(C(=O)Nc2ccccc2)C2CCCC2)s1` [Compound 49, 1-cyclopentyl-1-[(2-methoxythiazol-5-yl)methyl]-3-phenyl-urea], for the setting “Homo sapiens, SK-OV-3, 24 h”, the IC50 was 1000 to 5000 nM.

`Cc1ccc(CN(C(=O)Nc2ccc(F)c(F)c2)C2CCCC2)o1` [Compound 31, 1-cyclopentyl-3-(3,4-difluorophenyl)-1-[(5-methyl-2-furyl)methyl]urea]: the half-maximal inhibitory concentration (IC50) (Homo sapiens, SK-OV-3, 24 h) was in the range of 100 to 500 nM.

Take `Cc1ccc(CN(C(=O)Nc2ccc(C3COC3)cc2)C2CCCC2)o1` [Compound 317, 1-cyclopentyl-1-[(5-methyl-2-furyl)methyl]-3-[4-(oxetan-3-yl)phenyl]urea]: the IC50 (Homo sapiens, SK-OV-3, 24 h) was 1000 to 5000 nM.

As to `Cc1ccc(CN(C(=O)Nc2ccc3c(c2)CN(C)C3=O)C2CCCC2)o1` [Compound 312, 1-cyclopentyl-1-[(5-methyl-2-furyl)methyl]-3-(2-methyl-1-oxo-isoindolin-5-yl)urea], the IC50 (Homo sapiens, SK-OV-3, 24 h) lay within 1000 to 5000 nM.

For the compound `COc1cc(NC(=O)N(Cc2ccc(C)o2)C2CCCC2)ccc1-n1cc(CO)nn1` [Compound 323, 1-cyclopentyl-[4-[4-(hydroxymethyl)triazol-1-yl]-3-methoxy-phenyl]-1-[(5-methyl-2-furyl)methyl]urea], the IC50 (Homo sapiens, SK-OV-3, 24 h) is 100 to 500 nM.

On to `O=C(Nc1ccccc1)N(Cc1ccoc1)C1CCCC1` [Compound 64, 1-cyclopentyl-1-(3-furylmethyl)-3-phenyl-urea], for which the IC50 (Homo sapiens, SK-OV-3, 24 h) is 1000 to 5000 nM.

For the compound `CC(c1cccc(C#N)c1)N(C(=O)Nc1ccc(F)cc1)C1CCCC1` (racemic) [Compound 187, 1-[1-(3-cyanophenyl)ethyl]-1-cyclopentyl-3-(4-fluorophenyl)urea], the IC50 (Homo sapiens, SK-OV-3, 24 h) is 100 to 500 nM.

With `Cc1ccc(CN(C(=O)Nc2ccc(-c3cnn(C(C)(C)CO)c3)cc2)C2CCCC2)o1` [Compound 101, 1-cyclopentyl-3-[4-[1-(2-hydroxy-1,1-dimethyl-ethyl)pyrazol-4-yl]phenyl]-1-[(5-methyl-2-furyl)methyl]urea], the IC50 (Homo sapiens, SK-OV-3, 24 h) is over 5000 nM.

Regarding `N#Cc1cccc(CN(C(=O)Nc2ccc(C#CCO)cc2)C2CCC2)n1` [Compound 319], where the note is “Homo sapiens, SK-OV-3, 24 h”, the IC50 is under 100 nM.

On to `Cc1ccc(CN(C(=O)Nc2ccc(Cl)cc2)C2CCC(C#N)C2)o1` (centres unmarked) [Compound 254, 3-(4-chlorophenyl)-1-(3-cyanocyclopentyl)-1-[(5-methyl-2-furyl)methyl]urea], for which the IC50 (Homo sapiens, SK-OV-3, 24 h) fell in the range of 500 to 1000 nM.

On to `N#Cc1ccc(NC(=O)N(Cc2cccc3ncsc23)C2CCC2)cc1` [Compound 263, 1-(1,3-benzothiazol-7-ylmethyl)-3-(4-cyanophenyl)-1-cyclobutyl-urea], for which the IC50 (Homo sapiens, SK-OV-3, 24 h) was 100 to 500 nM.

With `CCc1ccc(NC(=O)N(Cc2ccc(C)o2)C2CCCC2)cc1` [Compound 177, 1-cyclopentyl-3-(4-ethylphenyl)-1-[(5-methyl-2-furyl)methyl]urea], the IC50 (Homo sapiens, SK-OV-3, 24 h) was under 100 nM.

With `COC1CC(N(Cc2ccc(C)o2)C(=O)Nc2ccc(C#N)cc2)C1` (centres unmarked) [Compound 216, 3-(4-cyanophenyl)-1-(3-methoxycyclobutyl)-1-[(5-methyl-2-furyl)methyl]urea], the half-maximal inhibitory concentration (IC50) (Homo sapiens, SK-OV-3, 24 h) is under 100 nM.

With `Cc1ccc(CN(C(=O)Nc2ccncc2)C2CCCC2)o1` [Compound 81, 1-cyclopentyl-1-[(5-methyl-2-furyl)methyl]-3-(4-pyridyl)urea], under “Homo sapiens, SK-OV-3, 24 h”, the 50% inhibitory concentration (IC50) was in the range of 500 to 1000 nM.

`CC1(CN(C(=O)Nc2ccc(F)cc2)C2CCCC2)CCN(S(C)(=O)=O)CC1` [Compound 113, 1-cyclopentyl-3-(4-fluorophenyl)-1-[(4-methyl-1-methylsulfonyl-4-piperidyl)methyl]urea]: where the note is “Homo sapiens, SK-OV-3, 24 h”, the IC50 lay in the range of 1000 to 5000 nM.

For `Cc1ccc(CN(C(=O)Nc2ccc(Cl)cc2)c2cncn2C)o1` [Compound 193, 3-(4-chlorophenyl)-1-[(5-methyl-2-furyl)methyl]-1-(3-methylimidazol-4-yl)urea], the IC50 lay in the range of 500 to 1000 nM.

Take `Cc1ccc(CN(C(=O)Nc2ccc(F)c(F)c2)C2CCCC2)s1` [Compound 27, 1-cyclopentyl-3-(3,4-difluorophenyl)-1-[(5-methyl-2-thienyl)methyl]urea]: under “Homo sapiens, SK-OV-3, 24 h”, the IC50 fell in the range of 100 to 500 nM.

For `CC(=O)c1ccc(NC(=O)N(Cc2ccc(C)o2)C2CCCC2)cc1` [Compound 94, 3-(4-acetylphenyl)-1-cyclopentyl-1-[(5-methyl-2-furyl)methyl]urea], under “Homo sapiens, SK-OV-3, 24 h”, the IC50 is 1000 to 5000 nM.

As for `O=C(Nc1ccc(F)cc1)N(Cc1ccncc1)C1CCCC1` [Compound 75, 1-cyclopentyl-3-(4-fluorophenyl)-1-(4-pyridylmethyl)urea], the IC50 (Homo sapiens, SK-OV-3, 24 h) is over 5000 nM.

As for `O=C(Nc1ccc(Cl)cc1)N(Cc1ccc2nsnc2c1)C1CCC1` [Compound 240, 1-(2,1,3-benzothiadiazol-5-ylmethyl)-3-(4-chlorophenyl)-1-cyclobutyl-urea], the IC50 (Homo sapiens, SK-OV-3, 24 h) was under 100 nM.

Take `CC1(CN(C(=O)Nc2ccc(F)cc2)C2CCCC2)CCN(C(=O)OC(C)(C)C)CC1` [Compound 78, tert-butyl 4-[[cyclopentyl-[(4-fluorophenyl)carbamoyl]amino]methyl]-4-methyl-piperidine-1-carboxylate]: under “Homo sapiens, SK-OV-3, 24 h”, the IC50 lay in the range of 100 to 500 nM.

Take `Cc1ccc(CN(C(=O)Nc2ccc(C#N)cc2)c2nccn2C)o1` [Compound 233, 3-(4-cyanophenyl)-1-[(5-methyl-2-furyl)methyl]-1-(1-methylimidazol-2-yl)urea]: under “Homo sapiens, SK-OV-3, 24 h”, the IC50 fell in the range of 1000 to 5000 nM.

With `N#Cc1ccc(NC(=O)N(Cc2ccc3ncoc3c2)C2CCC2)cc1` [Compound 209, 1-(1,3-benzoxazol-6-ylmethyl)-3-(4-cyanophenyl)-1-cyclobutyl-urea], where the note is “Homo sapiens, SK-OV-3, 24 h”, the IC50 was 500 to 1000 nM.

In the case of `CC(=O)c1ccc(NC(=O)N(Cc2cccs2)C2CCCC2)cc1` [Compound 22, 3-(4-acetylphenyl)-1-cyclopentyl-1-(2-thienylmethyl)urea], under “Homo sapiens, SK-OV-3, 24 h”, the IC50 is over 5000 nM.

As for `O=C(Nc1ccc2c(c1)OCO2)N(Cc1cccs1)C1CCCC1` [Compound 7, 3-(1,3-benzodioxol-5-yl)-1-cyclopentyl-1-(2-thienylmethyl)urea], where the note is “Homo sapiens, SK-OV-3, 24 h”, the IC50 fell in the range of 1000 to 5000 nM.

Turning to `CC(NC(=O)Nc1ccc(Cl)cc1)c1ccc(Cl)s1` (racemic) [Compound 199, 1-(4-chlorophenyl)-3-[1-(5-chloro-2-thienyl)ethyl]urea], the IC50 (Homo sapiens, SK-OV-3, 24 h) was 500 to 1000 nM.

On to `CC(NC(=O)Nc1ccccc1)c1ccc(F)cc1` (racemic) [Compound 197, 1-[1-(4-fluorophenyl)ethyl]-3-phenyl-urea], for which the IC50 (Homo sapiens, SK-OV-3, 24 h) was 1000 to 5000 nM.

Consider `O=C(Nc1ccc(Cl)cc1)N(Cc1cc2ccccn2n1)C1CCC1` [Compound 239, 3-(4-chlorophenyl)-1-cyclobutyl-1-(pyrazolo[1,5-a]pyridin-2-ylmethyl)urea], for which, under “Homo sapiens, SK-OV-3, 24 h”, the IC50 lay in the range of 100 to 500 nM.

Turning to `O=C(Nc1ccccc1)N(Cc1ccccn1)C1CCCC1` [Compound 67, 1-cyclopentyl-3-phenyl-1-(2-pyridylmethyl)urea], the IC50 (Homo sapiens, SK-OV-3, 24 h) is 1000 to 5000 nM.

Turning to `CC(C)(C)OC(=O)N1CCC(CN(C(=O)Nc2ccc(F)cc2)C2CCCC2)CC1` [Compound 119, tert-butyl 4-[[cyclopentyl-[(4-fluorophenyl)carbamoyl]amino]methyl]piperidine-1-carboxylate], the IC50 (Homo sapiens, SK-OV-3, 24 h) is 500 to 1000 nM.

Regarding `Cc1ccc(CN(C(=O)Nc2ccc(Cl)cc2)c2nccn2C)o1` [Compound 182, 3-(4-chlorophenyl)-1-[(5-methyl-2-furyl)methyl]-1-(1-methylimidazol-2-yl) urea], the half-inhibitory concentration (IC50) (Homo sapiens, SK-OV-3, 24 h) was 100 to 500 nM.
